Measurements as given in patent US20110124742A1, “COMPOSITION AND METHOD OF ADIPOSE CELL DIFFERENTIATION INHIBITION” (NATIONAL YANG-MING UNIVERSITY, priority 2008, published 2011).

How the values were obtained:
Type in all cases: cell-based
[1] = system: 3T3-L1 adipose cell; assay: 3T3-L1 adipose cell differentiation assay, triglyceride content per unit protein; details: day 9, control 0.1% DMSO
Protocol: In the present invention, 3T3-L1 fibroblast cell is purchased from Bioresource collection and research center. Medium for 3T3-L1 fibroblast cell culture contains 10% (v/v) FBS, Dulbecco's modified Eagle's high-glucose medium containing 1% (v/v) penicillin (10000 U/ml) and streptomycin (10 mg/ml). Cell culture is performed in 37 C, 10% CO2 incubators. Subculture is performed at 80-90% cell confluence. After cell reaches 100% confluence, differentiation solution is used for differentiation. The complete differentiation takes 9 days. Differentiation solution contains 0.5 mM IBMX, 10 μg/ml insulin, 0.5 μM dexamethasone in 10% FBS DMEM. Two or three days after 3T3-L1 fibroblast cell reaching 100% confluence (day 0), the original 10% FBS DMEM is removed and differentiation solution is added. Replace cell culture medium at day 3 and day 6 with 10% FBS DMEM containing 10 μg/ml insulin. Harvest cells at day 9 of differentiation for cell morphology observation (Juan, C. C.; Chang, C. L.; Lai, Y. H.; Ho, L. T., Endothelin-1 induces lipolysis in 3T3-L1 adipocytes. Am. J. Physiol. Endocrinol. Metab. 2005, 288, E1146-52).
Mature 3T3-L1 adipose cell stores energy in the form of triglyceride of cell's oil drop. In order to study if plant essential oil is able to inhibit lipid accumulation in 3T3-L1 pre-adipose cell, we use cellular accumulated triglyceride content as an indicator of adipose cell differentiation. The examination method is as follows. Remove 3T3-L1 cell culture medium, wash cell with PBS for three times. Add protein lysis buffer (50 mM Tris-HCl, 150 mM NaCl, 0.5% sodium deoxycholate, 1% NP-40, 0.1% SDS) containing 10-fold diluted protease inhibitor into each well. Transfer mixture of scraped cells and buffer into microcentrifuge tube. Take 5 μl of homogenized cell mixture and 250 μl of reagent for reaction. The reaction is complete at room temperature in 1 hour, and then detects OD550 nm. Use OD value to calculate triglyceride concentration from a Merck multi-system calibrator generated standard curve. Determine triglyceride and protein concentration in each well, and the division of these two values (mg TG/mg protein) represents triglyceride content per unit protein in the cell. […]
Dilute Acorus essential oil (density 1.10 g/ml) to 25, 62.5, and 125 mg/ml with DMSO. Until cell growth reaches post confluence (day 0), diluted Acorus essential oil solution is added into differentiation solution in 1:1000 dilution into cell (final concentration is 25, 62.5, and 125 μg/ml). While replacing growth medium containing insulin at day 3 and day 6, replenish each concentration of Acorus essential oil in culture medium as well as the ones adding 0.1% DMSO as controls. The analysis at day 9 discovered that 25 μg/ml Acorus essential oil reduces triglyceride content per cell unit protein to 77% relative to its control. Acorus essential oil at 62.5 and 125 μg/ml essential oil reduces it to 55% and 20% relative to its control (FIG. 2a).
Ten ml of Acorus essential oil dissolved in hexane (5 ml essential oil and 5 ml hexane) is loaded into prepacked silica gel glass column and eluted by hydrophobicity (Table 2). Essential oil can be separated into 5 portions based on each component's hydrophobicity. Remove elution solvent by lypholizer, dissolve each component in 2 ml DMSO or methanol, and store it in glass vial. 3T3-L1 is used as a cell model, we add various fractions in DMSO or methanol at concentration of 50 μg/ml into cell differentiation medium and growth medium. At day 9 of complete differentiation, analyze triglyceride content per cell unit protein. […] Therefore, the second fraction has been chosen for further analysis.
After identifying the second fraction of Acorus essential oil as α-asarone and β-asarone, we further examine the effect of these two compounds on adipose cell differentiation inhibition. We dissolve α-asarone and β-asarone in DMSO to make concentration of 0.015, 0.03, 0.06, 0.13, and 0.25 M solution. […]

[2] = system: 3T3-L1 adipose cell; assay: MTT assay, cell viability of 3T3-L1 adipose cell; details: 0.25 mM (maximal amount)
[3] = system: 3T3-L1 adipose cell; assay: Oil red staining of 3T3-L1 adipose cell; details: 0.03, 0.06, 0.13, 0.25 mM, day 9
Protocol: Acorus essential oil inhibition effect on cell differentiation can be visualized under microscope by oil red staining. It is performed as follows. Dissolve 0.03 g of Oil red O in 10 ml of isopropylalcohol as stock solution. Mix 2.4 ml of stock solution and 1.6 ml of PBS and filter it before staining. Remove medium from cells, add appropriate amount of filtered staining solution for 15 minutes, wash cell three times with PBS for 5 minutes each, and then add 4% paraformaldehyde for 15 minutes to fix cells, repeat wash step by PBS. Add 0.1% Triton X-100 for 30 seconds, and repeat wash step by PBS. Add appropriate amount of hematoxylin for 30 seconds followed by one last wash step by PBS. Observe the image under a microscope and record the image.

[4] = system: PPARγ; assay: PPARγ mRNA expression by RT-PCR in 3T3-L1 cell; details: 3 days, GAPDH internal control
Protocol: (§1) RNA extraction: Remove 3T3-L1 cell medium directly from 10 cm petri dish, add 1 ml of Trizol reagent, and scrape off cells. Transfer cell and reagent mixture into a microcentrifuge tube. Add 200 μl chloroform in each tube and vortex for 15 seconds until it is clouded. Leave it on ice for 2-3 minutes at 4 C, spin it at 12000 rpm for 20 minutes. Transfer supernatant to another microcentrifuge tube, add equal amount of isopropylalcohol, mix and leave it on ice for 10 minutes. Spin it at 12000 rpm for 10 minutes at 4 C. After centrifugation, remove supernatant and save RNA pellet in the bottom. Add 75% cold ethanol, spin it at 7500 rpm for 10 minutes at 4 C. Remove ethanol after centrifugation and air dry the pellet until the edge is clear. Add appropriate amount of DEPC H2O to dissolve RNA pellet, and determine RNA concentration by OD260/OD280 nm with a spectrophotometer.
(§2) RT-PCR: Take 2 μg of RNA for reverse transcription reaction. Mix RNA, DEPC H2O and 0.25 μg random primer to make total volume of 12 μl. Keep it at 70 C for 10 minutes, and then leave it on ice. Add 4 μl of 5× first-strand buffer, 2 μl of 0.1 M dithiothreitol, 1 μl of 10 mM dNTP and 1 μl of SuperScript™ II reverse transcriptase 200 U/μl. Keep it at 42 C for 1.5 hours, and then heat it at 70 C for 15 minutes to stop reverse transcription. Take 1 μl of cDNA from reverse transcription, mix with 5 μl of 10×PCR buffer, 1 μl of 10 mM dNTP, 2 μl of primer, 40.5 μl of sterile water, and 0.5 μl of Taq DNA polymerase (1 U/μl) for PCR reaction. The SEQ ID NO: 1 to SEQ ID NO: 6 is listed from the top to bottom accordingly. PCR program is listed as follows: 95 C/5 min; 25˜30 cycles of 95 C/1 min, 55 C/1 min, 72 C/1 min; 72 C/10 min, and stop reaction at 4 C.
(§3) Because PPARγ and C/EBPα are early marker genes during adipose cell differentiation, these genes have been analyzed from cells harvested after 3 days of β-asarone addition. […]

[5] = system: C/EBPα; assay: C/EBPα mRNA expression by RT-PCR in 3T3-L1 cell; details: 3 days, GAPDH internal control
Protocol: as §1, §2, §3

[6] = system: PPARγ; assay: PPARγ protein expression by western blot in 3T3-L1 cell; details: 3 days, α-tubulin internal control
Protocol: (§4) Western blot analysis: Prepare 12% SDS-PAGE as follows. Recipe of separating gel contains 2.5 ml of 1.5 M Tris-HCl pH 8.8, 100 μl of 10% SDS, 3 ml of acrylamide/bis (37.5:1; 40%), 4.35 ml RO water, 50 μl of 10% ammonium persulfate, and 5 μl of TEMED. Recipe of stacking gel contains 1.25 ml of 0.5 M Tris-HCl pH 6.8, 50 μl of 10% SDS, 0.065 ml of acrylamide/bis (37.5:1; 40%), 3.05 ml of RO water, 25 μl of APS and 5 μl of TEMED. Load same amount of protein in each well, and electrophoresis is performed under 100V for 2 hours. Prepare transfer buffer (10 mM CAPS-NaOH, 10% methanol, pH 11.0), and use methanol to rinse PVDF transfer membrane. After electrophoresis is complete, remove SDS-PAGE gel, cover the gel and PVDF membrane with transfer buffer rinsed 3 MM paper. Put it into transfer tank full of transfer buffer, electrophoresis under 500 mA for 1 hour. Take transfer membrane out, block it with 5% skim milk in TBST (20 mM Tris, 137 mM NaCl, 0.01% Tween-20), and wash it with TBST briefly. Add primary antibody for 2-hour reaction, wash membrane with TBST for three times, 15 minutes each. Add appropriate amount of secondary antibody for 1 hour, wash membrane with TBST for three times, 15 minutes each. In the end, evenly cover ECL on the transfer membrane, place membrane in the film cassette, and expose it to X-ray film. Develop the film for analysis.
(§5) Analyze cells of β-asarone supplement for 3 days by western analysis. The expression of PPARγ from cells treated with β-asarone at concentration of 0.03, 0.06, and 0.13 mM is 97%, 117%, and 111% relative to its normal differentiated control with no significant difference. When β-asarone reaches 0.25 mM, the expression of PPARγ reduces to 45% relative to its control (FIG. 12). In terms of another differentiation marker gene C/EBPα, the expression of C/EBPα treated with β-asarone at concentrations of 0.03 and 0.06 mM is 113% and 77% relative to its control with no statistical difference. However, when β-asarone reaches 0.13 mM and 0.25 mM, the expression of C/EBPα reduces to 43% and 33% relative to its control (FIG. 13).

[7] = system: C/EBPα; assay: C/EBPα protein expression by western blot in 3T3-L1 cell; details: 3 days, α-tubulin internal control
Protocol: as §4, §5

| Compound | triglyceride content relative to normal differentiation control ([1]; 0.015 mM) | triglyceride content relative to normal differentiation control ([1]; 0.03 mM) | triglyceride content relative to normal differentiation control ([1]; 0.06 mM) | triglyceride content relative to normal differentiation control ([1]; 0.13 mM) | triglyceride content relative to normal differentiation control ([1]; 0.25 mM) | cell viability rate relative to normal differentiated control [2] | oil red staining, red oil covered area [3] | PPARγ mRNA expression relative to normal differentiated control ([4]; 0.03 mM) | PPARγ mRNA expression relative to normal differentiated control ([4]; 0.06 mM) | PPARγ mRNA expression relative to normal differentiated control ([4]; 0.13 mM) | C/EBPα mRNA expression relative to normal differentiated control ([5]; 0.03 mM) | C/EBPα mRNA expression relative to normal differentiated control ([5]; 0.06 mM) | C/EBPα mRNA expression relative to normal differentiated control ([5]; 0.13 mM) | PPARγ protein expression relative to normal differentiated control ([6]; 0.03 mM) | PPARγ protein expression relative to normal differentiated control ([6]; 0.06 mM) | PPARγ protein expression relative to normal differentiated control ([6]; 0.13 mM) | C/EBPα protein expression relative to its control ([7]; 0.03 mM) | C/EBPα protein expression relative to its control ([7]; 0.06 mM) | C/EBPα protein expression relative to its control ([7]; 0.25 mM) |
| --- | --- | --- | --- | --- | --- | --- | --- | --- | --- | --- | --- | --- | --- | --- | --- | --- | --- | --- | --- |
| C/C=C/c1cc(OC)c(OC)cc1OC (single isomer, unassigned) [α-asarone, reference compound] | 107% | 106% | 99% | 104% | 105% | 78% |  |  |  |  |  |  |  |  |  |  |  |  |  |
| C/C=C\c1cc(OC)c(OC)cc1OC (single isomer, unassigned) [β-asarone] | 101% | 90% | 91% | 66% | 47% | 79% | red oil covered area is decreasing | 96% | 94% | 90% | 99% | 94% | 96% | 97% | 117% | 111% | 113% | 77% | 33% |
